Experimental data from US12297457B2, “Esophageal tissue and/or organoid compositions and methods of making same” (Children's Hospital Medical Center, priority 2017, dated 2025).

Experiments:
[1] = system: Xenopus endoderm explants; test: nkx2-1 in situ hybridization of Xenopus endoderm explants; assay type: cell-based, Xenopus laevis; conditions: sox2 morpholino knock down; explants analysed at stage NF35
Experimental: Xenopus laevis adults were purchased from the Nasco (Fort Atkinson, Wis.), and housed according to CCHMC IACUC protocols. Ovulation, in vitro fertilization, and de-jellying of embryos were performed as described (Sive et al., 2000). A mixture of previously validated Sox2 morpholinos (MOs; Van Raay et al., 2005) targeting the 5′UTR (Sox2-UTR MO) and the ATG start codon (Sox2-ATG MO) were injected at the 8-cell stage into each vegetal blastomere (2 ng total MO per blastomere, 8 ng total per embryo) to target endoderm. MOs were synthesized and purchased from GeneTools. Equal amount of control MO was used in control injections.
For Xenopus explant studies, stage NF20 foregut endoderm tissue was micro-dissected in 1×MBS (Modified Barth's Saline; Sive et al., 2000)+50 ug/mL gentamycin sulfate (MP Biochemicals), +4% Ficoll-400 (Sigma) and explants were then cultured in 0.5×MBS+0.1% Fatty Acid Free BSA (Fisher)+50 ug/mL gentamycin sulfate with or without the following concentrations of small molecules or recombinant proteins from stages […] (approximately 48 hours): 3.5 μM Bio (Tocris), 50 ng/mL recombinant human BMP4 (R&D systems).
In situ hybridization on mouse sections was performed by generating DIG-labeled probes from linearized mouse cDNA plasmids. […]

AFG spheroids = test: Dorsal-ventral patterning / respiratory induction of anterior foregut spheroids (qPCR, IF); assay type: cell-based, human; conditions: TGFβ inhibitor added during foregut induction; day 9 spheroids
Experimental: (§1) Alternately, for the generation of anterior foregut spheroids, from definitive endoderm, cells were treated with FGF4 (500 ng mL-1, R&D systems), Noggin (200 ng mL-1) for 3 days in RPMI 1640 with 2% dFBS. Additional factors were tested during this time (described in results), such as CHIR99021 (“chiron” or “chr”, 2 μM, Tocris), Wnt3a (500 ng mL-1, R&D systems), SB431542 (10 μM, Tocris), DEAB (10 μM, Sigma), and retinoic acid (2 μM).
Anterior foregut spheroids were transferred into 50 μL droplets of Matrigel, and are cultured for 3-58 days in the base (“Gut”) media of Advanced DMEM/F12 (ThermoFisher Scientific) supplemented with B27 supplement (1×, ThermoFisher Scientific), N2 supplement (1×, ThermoFisher Scientific), HEPES (13 mM, ThermoFisher Scientific), L-Glutamine (2 mM ThermoFisher Scientific), penicillin/streptomycin (1×, ThermoFisher Scientific), and EGF (100 ng mL^−1, R&D systems). In addition to this base media, the first three days were supplemented with Noggin (200 ng mL^−1), FGF10 (50 ng mL^−1), and CultureOne supplement (1×, ThermoFisher Scientific). […]
Spheroid and organoids were harvested in total, including the embedding matrigel. […] For qRT-PCR, Applicant used Quantitect SYBR-Green master mix (Qiagen) and ran the reaction on a QuantStudio 6 machine (ThermoFisher Scientific). […]

foregut spheroids = test: Anterior-posterior patterning of foregut spheroids (qPCR, IF); assay type: cell-based, human; conditions: TGFβ inhibitor added during foregut induction; SB431542, 10 μM
Experimental: Confluent hPSC cultures were treated with Acutase (STEMCELL Technologies) to resuspend as single cells in mTeSR1 and Y-27632 (10 μM, Tocris) and plated on Matrigel. On the following day, differentiation into definitive endoderm was carried out as previously described (McCracken et al., 2014). Briefly, cells were treated with Activin A (100 ng mL-1, R&D systems, Minneapolis, Minn.) and BMP4 (50 ng mL-1, R&D systems) on the first day in RPMI 1640 media (Life Technologies). Cells in the following two days were treated with only Activin A (100 ng mL-1) in RPMI 1640 with increasing concentrations 0.2% and 2% of HyClone defined fetal bovine serum (dFBS, GE Healthcare Life Sciences).
For anterior foregut monolayer cultures, cells were treated for 3 days in Noggin (200 ng mL-1) in RPMI 1640 with 2% dFBS, with all-trans retinoic acid (2 μM, Sigma, St. Louis, Mo.) the 3rd day.
as §1
Tissue cultures were fixed with 4% paraformaldehyde at either room temperature for 15 minutes, 4° C. for 2 hours for cryosectioning, or 4° C. overnight for paraffin embedding/sectioning and mouse embryos. For paraffin embedding and sectioning, following fixation, tissues were dehydrated and embedded into paraffin blocks. Afterwards, paraffin-sectioned slides were deparaffinized and subjected to antigen retrieval in 10 mM sodium citrate for 30 minutes prior to staining. For cryosectioning, tissues were thoroughly washed in PBS, left in 30% sucrose overnight, embedded in OCT compound (VWR), and sectioned at a thickness of 8 μm. Commonly, slides were then permeabilized with 0.5% TritonX-100 in PBS for 10 minutes, blocked in 5% normal donkey serum (Jackson ImmunoResearch) for 1 hour, and incubated in primary antibody overnight at 4° C. On the next day, slides were thoroughly washed in PBS, incubated in secondary antibody (at 1:500) for 1 hour, and then thoroughly washed again. For EdU visualization, Applicant used the Click-iT EdU Alexa Fluor 488 Imaging Kit (Invitrogen) prior to blocking. For wholemount immunofluorescence staining, embryos were placed in 100% methanol immediately after fixation. Embryos were then permeabilized with Dent's Bleach (4:1:1 MeOH:DMSO:30% H2O2) for 2 hours at room temperature, rehydrated with methanol washes, and blocked for several hours at room temperature to overnight at 4° C. Primary antibodies were applied and embryos incubated overnight at 4° C. Then, embryos were thoroughly washed in 0.1% TritonX-100 in PBS before incubating in secondary antibodies overnight at 4° C. Finally, embryos were washed again, dehydrated with methanol washes, and cleared with Murray's Clear (2:1 benzyl benzoate:benzyl alcohol, Sigma) at least 15 minutes prior to imaging. For a list of antibodies and dilutions used, please see Table 2.
Spheroid and organoids were harvested in total, including the embedding matrigel. Collagen plugs from the organotypic raft cultures were first removed from the transwell on day 14, and subsequently harvested in total. Total RNA was isolated using the NucleoSpin RNA kit (Macherey-Nagel) and reverse transcribed to cDNA using the SuperScript VILO cDNA synthesis kit (ThermoFisher Scientific). For qRT-PCR, Applicant used Quantitect SYBR-Green master mix (Qiagen) and ran the reaction on a QuantStudio 6 machine (ThermoFisher Scientific). For a list of primers used, please see Table 1.

[2] = system: anterior foregut (AFG) cultures; test: Doxycycline-induced CDX2 in anterior foregut cultures (IF quantification); assay type: cell-based, human; conditions: AFG cultures treated for 1 day
Experimental: Human embryonic stem cell (hESC) line H1 (WA01, person) were purchased from WiCell. iPSC line iPS106 was generated in-house and approved by the institutional review board at CCHMC. All hPSCs were maintained on feeder-free cultures: cells were plated on hESC-qualified Matrigel (BD Biosciences, San Jose, Calif.) and maintained at 37° C. with 5% CO2 with daily replacement of mTeSR1 media (STEMCELL Technologies, Vancouver, Canada); cells were passaged routinely every 4 days using Dispase (STEMCELL Technologies). The HA-tagged SOX2, CDX2, or FANCA dox-inducible lines were generated by first cloning the human SOX2 ORF, CDX2 ORF, or FANCA ORF into pINDUCER20 (respectively) (Addgene #44012, Meerbrey et al., 2011). Next, lentivirus was generated with help of the Viral Vector Core Facility at CCHMC. The lentivirus for HA-SOX2 and CDX2 were transduced into hESCs with 2 μL of virus; these lines were maintained on selection with mTeSR1 and G418 (500 μg mL-1, ThermoFisher Scientific). The lentivirus for FANCA were transduced prior to the iPS106 line generation, as FANCA is required for maintenance of hPSC properties. The hESC H1 line (and transduced derivatives) was used in all experiments excluding Fanconi Anemia modeling in HEOs, which used the iPS106 line. […]

[3] = system: dorsally-patterned AFG spheroids; test: Outgrowth of dorsally-patterned AFG spheroids into esophageal organoids; assay type: cell-based, human; conditions: added from day 6 to day 13
Experimental: Anterior foregut spheroids were transferred into 50 μL droplets of Matrigel, and are cultured for 3-58 days in the base (“Gut”) media of Advanced DMEM/F12 (ThermoFisher Scientific) supplemented with B27 supplement (1×, ThermoFisher Scientific), N2 supplement (1×, ThermoFisher Scientific), HEPES (13 mM, ThermoFisher Scientific), L-Glutamine (2 mM ThermoFisher Scientific), penicillin/streptomycin (1×, ThermoFisher Scientific), and EGF (100 ng mL^−1, R&D systems). In addition to this base media, the first three days were supplemented with Noggin (200 ng mL^−1), FGF10 (50 ng mL^−1), and CultureOne supplement (1×, ThermoFisher Scientific). FGF10 and CultureOne supplementation is continued until the end of the first week in three-dimensional culture. Media was replaced every 3-4 days. For EdU labeling, media was supplemented with EdU (10 μM Invitrogen) for a defined period of time, and was removed by washing with sterile PBS twice before replacing with media without EdU.

Molecule: O=C1Nc2cc(Br)ccc2/C1=C1/Nc2ccccc2/C1=N\O [Bio]
- nkx2-1 expression [1]: did not activate nkx2-1 expression

Molecule: NC(=O)c1ccc(-c2nc(-c3ccc4c(c3)OCO4)c(-c3ccccn3)[nH]2)cc1 [TGFβ inhibitor, SB431542, reference compound]
- upregulation of NKX2-1 on respiratory induction (AFG spheroids): reduces upregulation of NKX2-1
- posterior foregut markers (foregut spheroids): increase in posterior foregut markers

Molecule: C[C@H]1c2cccc(O)c2C(=O)C2=C(O)[C@]3(O)C(=O)C(C(N)=O)=C(O)[C@@H](N(C)C)[C@@H]3[C@@H](O)[C@@H]21 [doxycycline, Doxycycline]
- doxycycline concentration at which CDX2 induction saturates [2]: 100 to 500 ng/mL

B1: FGF10: recombinant human FGF10 (protein, UniProt O15520 38-208, looked up)
Fibroblast growth factor 10: QALGQDMVSPEATNSSSSSFSSPSSAGRHVRSYNHLQGDVRWRKLFSFTKYFLKIEKNGKVSGTKKENCPYSILEITSVEIGVVAVKAINSNYYLAMNKKGKLYGSKEFNNDCKLKERIEENGYNTYASFNWQHNGRQMYVALNGKGAPRRGQKTRRKNTSAHFLPMVVHS
- efficiency of spheroid to organoid outgrowth [3]: improved efficiency of spheroid to organoid outgrowth
- patterning and differentiation into esophageal organoids ([3]; data not shown): did not affect
